Columns and labels:
MeWo cells = assay: ceramide levels in MeWo human melanoma cells; format: cell-based; conditions: 25 μM
Method: Specifically, FIG. 1 evidences the effects of compound of Example 7 or vehicle (0.1% DMSO in DMEM) on AC activity and ceramide levels in A375 (left panel) or MeWo (right panel) human melanoma cell lines. (A-B) Intact cells were treated with compound of Example 7 (25 μM) or vehicle and AC activity was measured 30 minutes or 3 hours later in cell lysates. (B) Intact cells were exposed to compound of Example 7 (25 μM) for 2 hours or 24 hours and medium chain ceramides (C-D), long chain ceramides (E-F) and dihydroceramides (G-H) were quantified. Results are expressed as mean±s.e.m. (n=3). *p<0.05, **p<0.01, ***p<0.001 vs vehicle, two-way ANOVA followed by Dunnet.
Lipids were extracted from mouse tissue lysate with a chloroform/MeOH mixture (2:1 v/v, 3 mL) containing internal standards. The organic phase was collected, dried under nitrogen, and dissolved in chloroform/MeOH (1:3 v/v) for LC-MS analyses. Ceramides, sphingosine and sphinganine were analyzed by LC-MS/MS, using a Waters Acquity UPLC coupled with a Waters Xevo TQMS and interfaced with ESI. Separation was done on a Waters Acquity BEH C18 1.7 μm column (2.1×50 mm) at 60° C. A step gradient of 0.1% formic acid in acetonitrile/water (20:80 v/v) as solvent A and 0.1 formic acid in acetonitrile/isopropyl alcohol (20:80 v/v) as solvent B was applied at a flow rate of 0.4 mL/min. Detection was in the positive ionization mode. Capillary voltage was 3.5 kV and cone voltage was 25 V. The source temperature and desolvation temperatures were set at 120° C. and 600° C. respectively. […]
Tissue-derived ceramides were identified by comparison of their LC retention times and MS^2 fragmentation patterns with those of authentic standards (Avanti Polar Lipids). Extracted ion chromatograms were used to quantify myristoyl ceramide (C14:0, m/z 510.5>492.5>264.3), palmitoyl ceramide (C16:0, m/z 538.5>520.3>264.3), stearoyl ceramide (C18:0 m/z 566.5>548.3>264.3), lignoceroyl ceramide (C24:0 m/z 650.5>632.3>264.3), nervonoyl ceramide (C24:1 m/z 648.5>630.3>264.3) and using lauroyl ceramide standard (m/z 482.5>464.5>264.3). […]

COX1 (h) = COX1 (h) (Homo sapiens (Human), UniProt P23219); assay: Cerep enzyme inhibition screen: COX1; format: biochemical; conditions: mean of two determinations, read-out: Inhibitory activity (% Inh. at 10 μM), mean
Sequence of COX1 (h) (P23219 24-599): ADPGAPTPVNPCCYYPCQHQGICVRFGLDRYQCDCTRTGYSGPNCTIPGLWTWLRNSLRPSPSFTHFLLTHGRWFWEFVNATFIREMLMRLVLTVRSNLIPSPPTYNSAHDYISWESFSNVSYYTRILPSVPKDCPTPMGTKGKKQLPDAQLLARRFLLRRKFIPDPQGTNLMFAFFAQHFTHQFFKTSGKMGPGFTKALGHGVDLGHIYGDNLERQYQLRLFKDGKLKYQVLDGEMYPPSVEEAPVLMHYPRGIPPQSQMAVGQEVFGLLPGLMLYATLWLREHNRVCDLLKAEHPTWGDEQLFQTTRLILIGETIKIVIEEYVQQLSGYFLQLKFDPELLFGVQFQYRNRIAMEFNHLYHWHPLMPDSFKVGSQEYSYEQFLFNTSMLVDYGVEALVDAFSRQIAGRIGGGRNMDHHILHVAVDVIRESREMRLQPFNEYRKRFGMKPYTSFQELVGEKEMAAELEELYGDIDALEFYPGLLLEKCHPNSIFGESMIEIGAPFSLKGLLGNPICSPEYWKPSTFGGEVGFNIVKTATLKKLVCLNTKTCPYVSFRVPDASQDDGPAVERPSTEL
From the text: Compound of Example 25 falling in both Formula (I) and (Ia) was selected to be tested for off-target effects on a set of enzymes that include proteases (aspartic, cysteine, and serine), cyclooxygenases as well as lipoxygenases and group IV phospholipase (sPLA2) (Table 3). [table]

AC [1] = target: AC (Homo sapiens (Human), UniProt Q13510); assay: AC activity in SW403 human colon adenocarcinoma cells; format: cell-based
Sequence of AC (Homo sapiens (Human), UniProt Q13510) (Q13510 22-142): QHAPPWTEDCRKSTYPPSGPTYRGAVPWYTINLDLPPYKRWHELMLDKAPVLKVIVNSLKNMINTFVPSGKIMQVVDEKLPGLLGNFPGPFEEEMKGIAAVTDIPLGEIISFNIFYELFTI
Sequence of AC (Homo sapiens (Human), UniProt Q13510) (Q13510 143-395): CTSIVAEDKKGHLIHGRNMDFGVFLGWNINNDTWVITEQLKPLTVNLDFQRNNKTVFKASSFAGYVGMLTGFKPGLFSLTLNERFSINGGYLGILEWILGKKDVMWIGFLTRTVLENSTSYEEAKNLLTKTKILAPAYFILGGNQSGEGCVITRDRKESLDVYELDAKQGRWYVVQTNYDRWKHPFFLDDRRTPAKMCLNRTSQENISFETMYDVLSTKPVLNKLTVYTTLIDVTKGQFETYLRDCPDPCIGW
Method: (§1) (A) Intact cells were treated with compound of Example 25 (0.1-20 μM) or vehicle and AC activity was measured 3 hours later in cell lysates. (B-E) Intact cells were exposed to compound of Example 25 (0.1-20 μM) for 3 hours and sphingosine/sphinganine (B), dihydroceramides (C), medium chain ceramides (D), long chain ceramides (E) were quantified. Results are expressed as mean±s.e.m. (n=3). *p<0.05, **p<0.01, ***p<0.001 vs vehicle, two-way ANOVA followed by Dunnet.
(A) Intact cells were treated with compound of Example 25 (20 μM) or vehicle and AC activity was measured 1 to 48 hours later in cell lysates. (B-E) Intact cells were exposed to compound of Example 25 (20 μM) and sphingosine (B), C16:0 dihydroceramide (C), C16:0 ceramide (D) were quantified. Results are expressed as mean±s.e.m. (n=3). *p<0.05, **p<0.01, ***p<0.001 vs vehicle, two-way ANOVA followed by Dunnet.
hAC protein preparation (10 μg) was preincubated with inhibitors (final DMSO concentration 1%) in assay buffer (100 mM sodium phosphate, 0.1% Nonidet P-40, 150 mM NaCl, 3 mM DTT, 100 mM sodium citrate, pH 4.5) for 30 min at 37° C. Reactions were started by the addition of 50 μM N-lauroyl ceramide (Nu-Chek Prep, Elysian, Minn.) and carried on for 30 min at 37° C. Reactions were stopped by addition of a mixture of chloroform/methanol (2:1, vol/vol) containing 1 nmol 11-lauroleic acid (NuChek Prep). The organic phases were collected, dried under nitrogen and analyzed by UPLC/MS (Acquity, Waters). In the negative-ion mode monitoring the reaction product (lauric acid, m/z=199) using 11-lauroleic acid as internal standard. […]
The [M−H]^− ion was monitored in the selected-ion monitoring mode (m/z values: lauric acid 199, 11-lauroleic acid 197.35). […] Inhibition of AC activity was calculated as reduction of lauric acid in the samples compared to vehicle controls. IC50 values were calculated by non-linear regression analysis of log [concentration]/inhibition curves using GraphPad Prism 5 (GraphPad Software Inc., CA—USA) applying a standard slope curve fitting.

AC [2] = target: AC (Mus musculus (Mouse), UniProt Q9WV54); assay: AC activity in RAW264.7 murine cell line; format: cell-based; conditions: Raw264.7 cells; 0.1-20 μM; 3 hours
Sequence of AC (Mus musculus (Mouse), UniProt Q9WV54) (Q9WV54 19-141): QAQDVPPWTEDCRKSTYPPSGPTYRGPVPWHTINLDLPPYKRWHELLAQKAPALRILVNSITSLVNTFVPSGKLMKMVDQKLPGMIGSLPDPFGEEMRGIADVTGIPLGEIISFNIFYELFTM
Sequence of AC (Mus musculus (Mouse), UniProt Q9WV54) (Q9WV54 142-394): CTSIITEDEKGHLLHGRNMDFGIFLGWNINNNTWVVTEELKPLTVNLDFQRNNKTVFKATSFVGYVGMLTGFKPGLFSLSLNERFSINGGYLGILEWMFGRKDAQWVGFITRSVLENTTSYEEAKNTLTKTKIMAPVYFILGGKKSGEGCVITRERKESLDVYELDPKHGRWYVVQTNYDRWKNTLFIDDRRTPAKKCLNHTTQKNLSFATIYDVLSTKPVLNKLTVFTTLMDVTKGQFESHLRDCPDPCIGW
Method: as §1, with “Specifically it is reported the concentration response of compound of Example 25 or vehicle (0.1% DMSO in DMEM) on AC activity and ceramide levels in RAW264.7 murine cell line. (A)” for “(A)”
hAC protein preparation (10 μg) was preincubated with inhibitors (final DMSO concentration 1%) in assay buffer (100 mM sodium phosphate, 0.1% Nonidet P-40, 150 mM NaCl, 3 mM DTT, 100 mM sodium citrate, pH 4.5) for 30 min at 37° C. Reactions were started by the addition of 50 μM N-lauroyl ceramide (Nu-Chek Prep, Elysian, Minn.) and carried on for 30 min at 37° C. […] The organic phases were collected, dried under nitrogen and analyzed by UPLC/MS (Acquity, Waters). […]
The [M−H]^− ion was monitored in the selected-ion monitoring mode (m/z values: lauric acid 199, 11-lauroleic acid 197.35). […] Inhibition of AC activity was calculated as reduction of lauric acid in the samples compared to vehicle controls. […]

[3] = 20 μM, AC activity and sphingolipid levels

| Compound | duration of effects on ceramide levels (MeWo cells; MeWo cells (high AC expression)) | di-hydro ceramide species levels (MeWo cells; MeWo cells) | ceramide species levels (cer(d18:1/14:0), cer(d18:1/16:0), cer(d18:1/18:0), cer(d18:1/24:1)) (MeWo cells; MeWo cells, LC/MS) | inhibition at 10 µM (COX1 (h)) [%] | duration of effects (timecourse) (AC [1]; [3]) [h] | onset of significant effects (timecourse) (AC [1]; [3]) [h] | AC activity (AC [1]; 0.1-20 μM, 3 hours) | AC activity (AC [2]) |
| --- | --- | --- | --- | --- | --- | --- | --- | --- |
| O=C(NCCCCc1ccccc1)n1c(=O)oc2cc(Br)ccc21 [Example 7, 6-Bromo-2-oxo-N-(4-phenylbutyl)-1,3-benzoxazole-3-carboxamide] | recovered the initial phenotype after 24 hours | significant increase in all di-hydro ceramide species analyzed | intracellular accumulation of various ceramide species | – | – | – | – | – |
| O=C(NCCCCc1ccccc1)n1c(=O)oc2cc(-c3ccc(F)cc3)ccc21 [Example 25, 6-(4-Fluorophenyl)-2-oxo-N-(4-phenylbutyl)-1,3-benzoxazole-3-carboxamide] | – | – | – | -6.1 | ≥ 6 | ≤ 1 | concentration dependent reduction in AC activity | concentration dependent reduction in AC activity |

Reference: patent US10226452B2, “Benzoxazolone derivatives as acid ceramidase inhibitors, and their use as medicaments” (FONDAZIONE ISTITUTO ITALIANO DI TECNOLOGIA, priority 2014, dated 2019)
